Like-named read-outs stand apart in the source and are kept apart here.
Tests used:
MES-SA/DX5 = experiment: SRB growth inhibition assay, P-gp over-expressing MES-SA/DX5 cells; type: cell-based; settings: Table 6; read-out: IC50 ± SEM MES-SA/Dx5
[1] = Metabolic stability in mouse liver microsomes; type: in vitro ADME; settings: for half-life at 0.5 μM: mouse, liver microsomes, pH 7.4, Table 20, read-out: Half life in Mouse liver microsome
[2] = Metabolic stability in rat liver microsomes; type: in vitro ADME; settings: Table 20; for half-life at 0.5 μM: rat, liver microsomes, pH 7.4, read-out: Half life in Rat liver microsome
[3] = Metabolic stability in dog liver microsomes; type: in vitro ADME; settings: Table 20; for half-life at 0.5 μM: dog, dog liver microsomes, pH 7.4, read-out: Half life in Dog liver microsome
[4] = Metabolic stability in monkey liver microsomes; type: in vitro ADME; settings: Table 20; for half-life at 0.5 μM: monkey, monkey liver microsomes, pH 7.4, read-out: Half life in Monkey liver microsome
[5] = system: A375 human melanoma xenograft; experiment: In vivo efficacy, A375 human melanoma xenograft in mice
Protocol: DTIC at 60 mg/kg was used as a positive control again.
PC-3 and A375 tumor xenograft studies.
(§1) In vivo antitumor activity [tumor growth inhibition (% T/C), tumor growth delay (T-C value), and tumor cell kill (total log cell kill)].

PC-3 xenografts = settings: for mice that lost more than 15% body weight: mouse, in vivo
Source text: as §1

PC-3 cells = experiment: Apoptosis detection by ELISA (cytoplasmic DNA-histone complexes), PC-3 cells; type: cell-based, human; settings: PC-3 and A375 cells, 24 h
Source text: The levels of DNA-histone complexes were used to represent cell apoptosis.
Apoptosis detection by ELISA. Quantification of the enrichment of mono- and oligonucleosomes in the cytoplasm was used to determine the ability of the compounds to induce apoptosis (cell death detection ELISA PLUS, Roche, Germany) following the manufacturer's instructions.

[6] = Pharmacokinetic study in ICR mice; settings: Mice, 15 mg/kg i.v.
[7] = Metabolic stability in human liver microsomes; settings: Table 20
[8] = Permeability (drug-like properties); settings: mean from duplicate studies
DU 145 = experiment: SRB cytotoxicity assay, DU 145 prostate cancer cells; type: cell-based; settings: Homo sapiens
Source text: (§2) Cells were stained with SRB solution.

PC-3 = experiment: SRB cytotoxicity assay, PC-3 prostate cancer cells; type: cell-based, human; settings: Homo sapiens, PC-3
Source text: as §2

LNCaP = experiment: SRB cytotoxicity assay, LNCaP prostate cancer cells; type: cell-based, human; settings: Homo sapiens, LNCaP
Source text: as §2

PPC-1 = experiment: SRB cytotoxicity assay, PPC-1 prostate cancer cells; type: cell-based, human; settings: Homo sapiens, PPC-1
Source text: as §2

DU145/TXR = experiment: SRB growth inhibition, paclitaxel-resistant DU145/TXR cells; type: cell-based; settings: Homo sapiens, DU-145; Table 13A; read-out: inhibitory effects DU145/TXR
PC-3/TxR = experiment: cells; settings: Homo sapiens, PC3-TxR, read-out: inhibitory effects PC3/TXR
B16-F1 melanoma tumors = experiment: In vivo efficacy, B16-F1 melanoma in C57/BL mice; design: species or system mouse; settings: 13 days, C57BL/6 mice
Bovine brain tubulin = experiment: In vitro tubulin polymerization assay (bovine brain tubulin); type: biochemical; settings: 10 μM
[9] = system: tubulin (colchicine, vinblastine and paclitaxel binding sites); experiment: Mass spectrometry competitive binding assay on tubulin
Source text: MS competition binding assay. […] Each reaction was run in triplicate.

[10] = Rotarod test (in vivo neurotoxicity) in ICR mice; design: species or system mouse; settings: 1h 5 or 15 mg/kg, vinblastine 0.5 mg/kg, i.p. daily
Protocol: Rotarod test. […] The rotarod test was performed twice a week.

in vivo [11] = settings: Sprague-Dawley, rat, plasma, iv
in vivo [12] = settings: male, ICR, mouse, plasma, iv, 15 mg/kg
[13] = Pharmacokinetic study in Sprague-Dawley rats
A375 cells = experiment: Cell cycle analysis (flow cytometry) in A375 cells; type: cell-based, human; settings: 24 h
B16-F1 melanoma cells = experiment: B16-F1 melanoma colony formation assay in soft agar; type: cell-based, mouse; settings: 14 days
Protocol: B16-F1 melanoma cells were plated at a colony-forming density (2000 cells per well on six-well plates) on top of 0.8% base agar. Cells were grown in 0.4% agar together with DMEM medium supplemented with fetal bovine serum and an antibiotic-antimycotic solution at 37° C. in an atmosphere of 95% air and 5% CO2. […] Compounds were added to the media from 1 mM DMSO stock solutions, and a corresponding dilution of DMSO was used as control. Cells were grown for 14 days. Plates were photographed, and the number of colonies was measured by Artek 880 Automated Colony Counter (Artek Systems Corporation, Farmingdale, NY).

WM-164 melanoma cells = experiment: Microtubule imaging (immunofluorescence) in WM-164 melanoma cells; type: cell-based, human; settings: 18 h
Source text: Primary antibody for tubulin and fluorescence-labeled secondary antibody were subsequently added to the cells. Cell nuclei were stained by DAPI. Whole Cell Stain Green was also applied to all cells. All images were acquired with an Olympus IX71 inverted fluorescence microscope (Olympus Corp., Tokyo, Japan) with overlays from separate images of tubulin (red), nuclei (blue), and whole cells (green).

B16-F1 = experiment: SRB cytotoxicity assay, B16-F1 mouse melanoma cells; type: cell-based; settings: Mus musculus, B16-F1, 48 h, Table 13, 48 h; read-out: IC50 ± SEM B16-F1 (converted)
A375 = experiment: SRB cytotoxicity assay, A375 human melanoma cells; type: cell-based; settings: Homo sapiens, A-375, 48 h, Table 13, 48 h; read-out: IC50 ± SEM A375
WM-164 = experiment: SRB cytotoxicity assay, WM-164 human melanoma cells; type: cell-based; settings: Homo sapiens, WM164, 48 h, Table 13, 48 h; read-out: IC50 ± SEM WM164 (converted)
HUVECs = experiment: Endothelial cell growth inhibition (SRB), HUVEC; type: cell-based, human
in vitro = settings: human, microsomes, pH 7.4
[14] = Table 13A, read-out: inhibitory effects DU145
[15] = Table 13A, read-out: inhibitory effects PC3
[16] = Table 13A, read-out: inhibitory effects LNCaP
[17] = Table 13A, read-out: inhibitory effects PPC1

Compound: COc1cc(C(=O)c2csc(-c3ccc(F)cc3)n2)cc(OC)c1OC [2k]
- IC50 (MES-SA/DX5): 19 nM
- Half life in Mouse liver microsome ([1]; Table 20): 9 min
- Half life in Rat liver microsome [2]: 32 min
- Half life in Dog liver microsome [3]: 16 min
- Half life in Monkey liver microsome [4]: <5 min
- T-C (tumor growth delay) ([5]; Melanoma (A375) xenograft, 15 mg/kg i.p.): 11 days
- Total log cell kill ([5]; Melanoma (A375) xenograft, 15 mg/kg i.p., doubling time 4.6 d): 0.7
- % T/C (PC-3 xenografts; 5 mg/kg i.p.): 21%
- % T/C (PC-3 xenografts; 15 mg/kg i.p.): 24%
- % T/C (PC-3 xenografts; Prostate (PC-3) xenograft, 5 mg/kg i.p., 21 days): 21%
- % T/C (PC-3 xenografts; Prostate (PC-3) xenograft, 15 mg/kg i.p., 21 days): 24%
- mice that lost more than 15% body weight (PC-3 xenografts): 2 out of 7
- concentration inducing apoptosis (PC-3 cells): 50 nM
- dose that did not cause greater than 10% loss of body weight (mouse, in vivo, ip): ≤ 15 mg/kg
- AUC [6]: 22 µg·h/mL
- CL [6]: 112 mL/min/kg
- Vss [6]: 6.6 L/kg
- half life in human liver microsome [7]: 10 min

Compound: CC(C)NCC(O)COc1cccc2ccccc12 (centres unmarked) [Propranolol]
- Papp(A→B) in CaCO-2 assay [8]: (19) 10^−6 cm/s

Compound: COc1cc(C(=O)c2nc(-c3ccc(C(F)(F)F)cc3)c[nH]2)cc(OC)c1OC [70e, (4-(4-(trifluoromethyl)phenyl)-1H-imidazol-2-yl)(3,4,5-trimethoxyphenyl)methanone]
- IC50 (DU 145; [14]): 210 nM
- IC50 (PC-3; [15]): 93 nM
- IC50 (LNCaP; [16]): 47 nM
- IC50 (PPC-1; [17]): 75 nM
- IC50 (DU145/TXR): 202 nM
- IC50 (PC-3/TxR): 46 nM

Compound: CN(C)/N=N/c1[nH]cnc1C(N)=O [DTIC, reference compound]
- tumor growth inhibition (TGI value) (B16-F1 melanoma tumors; 60 mg/kg): 51%
- tumor growth inhibition (TGI value) ([5]; 60 mg/kg, 31 days, SHO mice): 52%

Compound: COc1ccc(-c2c[nH]c(C(=O)c3cc(OC)c(OC)c(OC)c3)n2)cc1 [70g, (4-(4-methoxyphenyl)-1H-imidazol-2-yl)(3,4,5-trimethoxyphenyl)methanone]
- IC50 (DU 145; [14]): 210 nM
- IC50 (PC-3; [15]): 61 nM
- IC50 (PPC-1; [17]): 54 nM
- IC50 (DU145/TXR): 111 nM
- IC50 (PC-3/TxR): 25 nM

Compound: COc1cc(C(=O)c2csc(-c3ccccc3)n2)cc(OC)c1OC [1h, (2-Phenyl-thiazol-4-yl)-(3,4,5-trimethoxy-phenyl)-methanone]
- inhibition of tubulin polymerization (Bovine brain tubulin; 15 min): 90%
- inhibition of tubulin polymerization (Bovine brain tubulin; 20 min incubation, versus vehicle): 47%
- half-life at 0.5 μM [1]: < 5 min
- half-life at 0.5 μM [2]: 31 min
- half-life at 0.5 μM [3]: 19 min
- half-life at 0.5 μM [4]: < 5 min
- competition for tubulin binding sites [9]: specifically competed with colchicine binding to tubulin
- T-C (tumor growth delay) ([5]; Melanoma (A375) xenograft, 20 mg/kg i.p.): 10 days
- Total log cell kill ([5]; ip, 20 mg/kg, 110.4 h): 0.7
- % T/C (PC-3 xenografts; 5 mg/kg i.p.): 29%
- % T/C (PC-3 xenografts; 15 mg/kg i.p.): 4%
- % T/C (PC-3 xenografts; ip, 15 mg/kg, 504 h): 4%
- mice that lost more than 15% body weight (PC-3 xenografts): 1 of 8
- concentration inducing apoptosis (PC-3 cells): 50 nM
- time on the rotating rod versus vehicle group [10]: no significant difference
- dose that did not cause greater than 10% loss of body weight (ICR mice, 4 consecutive days of intraperitoneal dosing): up to 30 mg/kg
- Vd (in vivo [11]; […]): 7.6 L/kg
- clearance (in vivo [11]; […]): 6 mL/min/kg
- half-life (in vivo [11]; […]): 1440 min
- clearance (in vivo [11]; female): 7.7 ± 1 mL/min/kg
- AUC (in vivo [12]): 1900 ng·h/mL
- half-life (in vivo [12]): 140 min
- Vss (volume of distribution following intravenous dosing) ([13]; IV, […] (1h, 2r), 5 mg/kg (5Ha, 5Hc)): 4.9 ± 1.9 L/kg
- RatPK_PO10mgk_AUC ([13]; rat, PO 10 mg/kg): 37 µg·min/mL
- F (percent oral bioavailability), rat ([13]; rats, PO versus IV): 3.3%

Compound: COc1ccc(-c2nc(C(=O)c3ccc(F)cc3)c[nH]2)cc1 [12cb, (4-fluorophenyl)(2-(4-methoxyphenyl)-1H-imidazol-4-yl)methanone]
- concentration from which most cells are arrested in the G2/M phase (A375 cells): 200 nM
- concentration with effective inhibition of colony formation (B16-F1 melanoma cells): 20 nM
- effect on microtubules (WM-164 melanoma cells): microtubule fragmentation

Compound: O=C(c1cccc(F)c1)c1cn(S(=O)(=O)c2ccccc2)c(-c2ccccc2)n1 [11ag, (3-fluorophenyl)(2-phenyl-1-(phenylsulfonyl)-1H-imidazol-4-yl)methanone]
- IC50 (B16-F1): > 10 µM
- IC50 (A375): > 10 µM
- IC50 (WM-164): > 10 µM
- IC50 (DU 145; Table 13, 96 h, read-out: IC50 ± SEM Du 145): > 10000 nM
- IC50 (PC-3; Table 13, 96 h, read-out: IC50 ± SEM PC-3): > 10000 nM
- IC50 (LNCaP; Table 13, 96 h, read-out: IC50 ± SEM LNCaP): > 10000 nM
- IC50 (PPC-1; Table 13, 96 h, read-out: IC50 ± SEM PPC-1): > 10000 nM

Compound: COc1cccc2c1C(=O)c1c(O)c3c(c(O)c1C2=O)C[C@@](O)(C(=O)CO)C[C@@H]3O[C@H]1C[C@H](N)[C@H](O)[C@H](C)O1 [doxorubicin]
- times more active against endothelial cells than against cancer cells (HUVECs): not specific to endothelial cells
- IC50 (HUVECs; N = 3): 274 nM

Compound: O=C(c1ccc(F)cc1)c1c[nH]c(-c2ccc(Cl)cc2)n1 [12fb, (2-(4-chlorophenyl)-1H-imidazol-4-yl)(4-fluorophenyl)methanone]
- tumor growth inhibition (TGI value) (B16-F1 melanoma tumors; 45 mg/kg): 82%
- tolerability ([5]; 25 mg/kg, SHO mice): well tolerated
- half-life at 0.5 μM (in vitro): 37 min

Compound: COc1cc(C(=O)c2csc(-c3ccc(O)cc3)n2)cc(OC)c1OC [2l, (2-(4-Hydroxyphenyl)thiazol-4-yl)(3,4,5-trimethoxyphenyl)methanone]
- half-life at 0.5 μM [1]: 11 min
- half-life at 0.5 μM [2]: 49 min
- half-life at 0.5 μM [3]: 30 min
- half-life at 0.5 μM [4]: 8 min
- half-life at 0.5 μM (in vitro): 20 min

Compound: COc1cc(C(=O)c2nc(-c3ccc(Cl)cc3)c[nH]2)cc(OC)c1OC [70c, (4-(4-chlorophenyl)-1H-imidazol-2-yl)(3,4,5-trimethoxyphenyl)methanone]
- IC50 (DU 145; [14]): 125 nM
- IC50 (PC-3; [15]): 64 nM
- IC50 (LNCaP; [16]): 22 nM
- IC50 (PPC-1; [17]): 51 nM
- IC50 (PC-3/TxR): 25 nM

Compound: COc1cc(C(=O)c2cn(C)c(-c3ccc(C)cc3)n2)cc(OC)c1OC [12dab, (1-methyl-2-(p-tolyl)-1H-imidazol-4-yl)(3,4,5-trimethoxyphenyl)methanone]
- half-life at 0.5 μM [1]: < 5 min
- half-life at 0.5 μM [2]: 12 min
- half-life at 0.5 μM [3]: 46 min
- half-life at 0.5 μM (in vitro): 21 min

From US12187720B2, “Compounds for treatment of cancer” (ONCTERNAL THERAPEUTICS, INC., priority 2010, dated 2025)
